Reference: ChEMBL document CHEMBL4402583, “Rational Substitution of ε-Lysine for α-Lysine Enhances the Cell and Membrane Selectivity of Pore-Forming Melittin” (J Med Chem, 2020)
In brackets after ≈: the same amount, converted by molar mass. Activity calls are given as the source filed them. The rule behind the calls is not given here.

Tests used:
[1] = system: Lipid bilayer; assay: Induction of pore formation in negatively charged DOPE/DOPG large unilamellar vesicles assessed as ratio of peptide to lipid molar ratio that induces 50% calcein leakage measured for 60 mins by calcein dequenching based fluorescence based assay
[2] = system: Lipid bilayer; assay: Binding affinity to zwitterionic DOPC/cholesterol large unilamellar vesicles assessed as transformation of peptide secondary structure to alpha-helical conformation by CD spectropolarimetry
[3] = Cytotoxicity against HDF cells assessed as minimum cytotoxic concentration incubated for 24 hrs by Alexa Fluor […] phalloidin-FITC/Hoescht dye staining based fluorescence microscopic analysis; format: cell-based; details: human, HDF cells (NHDF, human dermal fibroblasts)
[4] = system: Staphylococcus aureus; assay: Antibacterial activity against Staphylococcus aureus assessed as reduction in bacterial growth incubated for 24 hrs by broth microdilution method; format: functional
[5] = system: Lipid bilayer; assay: Induction of pore formation in zwitterionic DOPC/cholesterol large unilamellar vesicles assessed as calcein release at 0.39 to 50 uM measured for 60 mins by fluorescence based assay
[6] = system: NHDF; assay: Cytotoxicity against HDF cells at 31.25 ug/ml incubated for 24 hrs by Alexa Fluor […] phalloidin-FITC/Hoescht dye staining based fluorescence microscopic analysis; format: cell-based; details: human
[7] = system: Pseudomonas aeruginosa; assay: Antibacterial activity against Pseudomonas aeruginosa assessed as reduction in bacterial growth incubated for 24 hrs by broth microdilution method; format: functional
[8] = system: Lipid bilayer; assay: Induction of pore formation in negatively charged DOPE/DOPG large unilamellar vesicles assessed as calcein release at 0.39 to 50 uM measured for 60 mins by fluorescence based assay
[9] = Cytotoxicity against HDF cells assessed as minimum cytotoxic concentration incubated for 24 hrs by MTS assay; format: cell-based; details: human, HDF cells (NHDF, human dermal fibroblasts)
[10] = system: Candida albicans; assay: Antifungal activity against Candida albicans assessed as reduction in fungal growth incubated for 24 hrs by broth microdilution method; format: functional
[11] = system: NHDF; assay: Cytotoxicity against HDF cells assessed as reduction in metabolic activity at 32 ug/ml incubated for 24 hrs by MTS assay; format: ADME, cell-based; details: human
[12] = system: Acinetobacter baumannii; assay: Resistance index, ratio of MIC for Acinetobacter baumannii ATCC 19606 measured after 4 serial passages by broth microdilution method to MIC for Acinetobacter baumannii ATCC 19606 incubated for 24 hrs by broth microdilution method; format: functional, organism-based; details: ATCC 19606 = CIP 70.34 = JCM 6841

Row | Molecule | Ratio [1] | Activity [2] | MCC at 24 h [3] | MIC [4] | Activity [5] | Activity [6] | MIC [7] | Activity [8] | MCC at 24 h [9] | MIC [10] | Activity [11] | Ratio [12]
1 | CC[C@H](C)[C@H](NC(=O)CN)C(=O)NCC(=O)N[C@@H](C)C(=O)N[C@H](C(=O)N[C@@H](CC(C)C)C(=O)N[C@@H](CCCCN)C(=O)N[C@H](C(=O)N[C@@H](CC(C)C)C(=O)N[C@H](C(=O)N[C@H](C(=O)NCC(=O)N[C@@H](CC(C)C)C(=O)N1CCC[C@H]1C(=O)N[C@@H](C)C(=O)N[C@@H](CC(C)C)C(=O)N[C@H](C(=O)N[C@@H](CO)C(=O)N[C@@H](Cc1c[nH]c2ccccc12)C(=O)N[C@H](C(=O)NCCC[C@@H](CN)C(=O)N[C@@H](CCCNC(=N)N)C(=O)N[C@@H](CCCCN)C(=O)N[C@@H](CCCNC(=N)N)C(=O)N[C@@H](CCC(N)=O)C(=O)N[C@@H](CCC(N)=O)C(N)=O)[C@@H](C)CC)[C@@H](C)CC)[C@@H](C)O)[C@@H](C)O)C(C)C)C(C)C | 0.24 | inactive | > 16 µg/mL | 4 to 8 µg/mL (≈ 1.41 to 2.81 µM) | Active | Toxic | 4 to 16 µg/mL (≈ 1.41 to 5.62 µM) | Active | > 16 µg/mL | 4 to 8 µg/mL (≈ 1.41 to 2.81 µM) | Toxic | –
2 | CC[C@H](C)[C@H](NC(=O)CN)C(=O)NCC(=O)N[C@@H](C)C(=O)N[C@H](C(=O)N[C@@H](CC(C)C)C(=O)N[C@@H](CCCCN)C(=O)N[C@H](C(=O)N[C@@H](CC(C)C)C(=O)N[C@H](C(=O)N[C@H](C(=O)NCC(=O)N[C@@H](CC(C)C)C(=O)N1CCC[C@H]1C(=O)N[C@@H](C)C(=O)N[C@@H](CC(C)C)C(=O)N[C@H](C(=O)N[C@@H](CO)C(=O)N[C@@H](Cc1c[nH]c2ccccc12)C(=O)N[C@H](C(=O)N[C@@H](CCCCN)C(=O)N[C@@H](CCCNC(=N)N)C(=O)NCCC[C@@H](CN)C(=O)N[C@@H](CCCNC(=N)N)C(=O)N[C@@H](CCC(N)=O)C(=O)N[C@@H](CCC(N)=O)C(N)=O)[C@@H](C)CC)[C@@H](C)CC)[C@@H](C)O)[C@@H](C)O)C(C)C)C(C)C | 0.15 | inactive | > 16 µg/mL | 4 to 8 µg/mL (≈ 1.41 to 2.81 µM) | Active | Toxic | 4 to 16 µg/mL (≈ 1.41 to 5.62 µM) | Active | > 16 µg/mL | 4 to 8 µg/mL (≈ 1.41 to 2.81 µM) | Toxic | –
3 | GENTAMICIN | – | – | – | – | – | – | – | – | – | – | – | 16
